We go through two molecules from patent US12097329B2, “Apparatus to administer drugs to mechanically ventilated patients” (Chiesi Farmaceutici S.p.A., priority 2018, dated 2024).

Data set [1] is described as follows: Aerosol performance by Next Generation Impactor (NGI), drug quantified by HPLC. It is filed as physicochemical. Conditions: BDP + FF 100 + 6 μg/10 mg DPI 37° C. 75% RH T-vol 500; connected to ventilation system through the connector. How it is done:
A powder formulation was prepared according to the teaching of Examples 2 and 3 of WO 2013/110632 and loaded in the multi-dose dry powder inhaler described in WO 2016/000983. A ventilator system Monnal T75, available from Air Liquid Medical Systems […], Italy) was used. A Catheter mounth (ID 10 mm, length 17 cm) and an endotracheal catheter (ID 8 mm, length 8.5 cm) were also utilized. Other equipments were standard. The following conditions were set-up: tidal volume: 500 ml; PEEP 5 cmH2O; Flow rate: about 41 l/min; breath frequency: 15 bpm. All tests were performed at room temperature and lung temperature (about 37° C.) with in line humidification (about 75% relative humidity system). The inhaler was connected to the ventilation system through the connector of the invention. The evaluation of the aerosol performance was carried out using the Next Generation Impactor (NGI) according to the conditions reported in the European Pharmacopeia 8.5th Ed 2015, par 2.9.18, pages 309-320. After aerosolization of three doses from the inhaler device, the NGI apparatus was disassembled and the amounts of drug deposited in the stages were recovered by washing with a solvent mixture and then quantified by High-Performance Liquid Chromatography (HPLC).

Test in data set [2]: as above
It is filed as physicochemical. Conditions: BDP + FF 100 + 6 μg/10 mg DPI - Release.

Molecules are shown by their SMILES. Counter-ions that a name gives are not always drawn.

With `CCC(=O)OCC(=O)[C@@]1(OC(=O)CC)[C@@H](C)C[C@H]2[C@@H]3CCC4=CC(=O)C=C[C@]4(C)[C@@]3(Cl)[C@@H](O)C[C@@]21C` [BDP, beclometasone dipropionate], in data set [1], the “DD (delivered dose)” value was 66.52 µg, the “EFPF (extrafine particle fraction)” value was found to be 34.76 % on DD, the “EFPM (extrafine FPM)” value stood at 23.12 µg and the “FPF (fine particle fraction)” value stood at 61.92 % on DD. Besides, the “FPM (fine particle mass, particle size equal to or lower than 5.0 micron)” value in data set [1] was determined as 41.19 µg. In addition, in data set [2], the “DD (delivered dose)” value turned out to be 81.05 µg, the “EFPF (extrafine particle fraction)” value came to 29.43 % on DD, the “EFPM (extrafine FPM)” value came out at 23.85 µg and the “FPF (fine particle fraction)” value was found to be 64.14 % on DD. Further, the “FPM (fine particle mass, particle size equal to or lower than 5.0 micron)” value in data set [2] came to 51.99 µg.

As to `COc1ccc(CC(C)NCC(O)c2ccc(O)c(NC=O)c2)cc1` (stereo not drawn) [FF, formoterol fumarate dihydrate], the “DD (delivered dose)” value amounted to 3.84 µg in data set [1] and 4.64 µg in data set [2].
